This note sets out measurements from publication PMC8821502, “Engineering a feedback inhibition-insensitive plant dihydrodipicolinate synthase to increase lysine content in Camelina sativa seeds” (Transgenic Research, 2021).

Experiment in all cases: o-aminobenzaldehyde colorimetric DHDPS assay, […] nm
What all share (format): biochemical

The target in one test is T1, CgDHDPS (Corynebacterium glutamicum, UniProt P19808).
T1 construct: gene dapA; ORF (301 aa) in pUC18; E. coli cell extract, not purified
T1 sequence (P19808 1-301): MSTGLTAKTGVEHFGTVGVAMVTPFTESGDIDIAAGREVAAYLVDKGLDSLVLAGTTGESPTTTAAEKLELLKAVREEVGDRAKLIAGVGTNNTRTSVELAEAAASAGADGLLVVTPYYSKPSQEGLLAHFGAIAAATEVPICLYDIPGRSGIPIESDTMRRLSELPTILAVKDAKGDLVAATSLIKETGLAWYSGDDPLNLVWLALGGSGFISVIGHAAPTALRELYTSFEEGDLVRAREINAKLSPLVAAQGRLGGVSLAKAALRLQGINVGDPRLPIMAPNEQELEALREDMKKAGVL
The note with it: 2 mM L-ASA, 35 mM pyruvate, pH 8, 37 °C; E. coli extract.

Test [1] has as its target T2, CsDHDPS B6 (wt CsDHDPS) (Camelina sativa, UniProt A0ABM0Z9P4).
T2 construct: gene LOC104788368; ORF (365 aa, includes predicted 38-aa chloroplast transit peptide) in pUC18 in-frame with LacZ start codon; E. coli cell extract, not purified; modelled as tetramer
The following applies: 2 mM L-ASA, 35 mM pyruvate, pH 8, 37 °C; E. coli extract.

Test [2] concerns the target T2, CsDHDPS B6 (wt CsDHDPS). The note with it: read-out: % activity remaining at 25 μM lysine.

T2 sequence (A0ABM0Z9P4 entry or part of it): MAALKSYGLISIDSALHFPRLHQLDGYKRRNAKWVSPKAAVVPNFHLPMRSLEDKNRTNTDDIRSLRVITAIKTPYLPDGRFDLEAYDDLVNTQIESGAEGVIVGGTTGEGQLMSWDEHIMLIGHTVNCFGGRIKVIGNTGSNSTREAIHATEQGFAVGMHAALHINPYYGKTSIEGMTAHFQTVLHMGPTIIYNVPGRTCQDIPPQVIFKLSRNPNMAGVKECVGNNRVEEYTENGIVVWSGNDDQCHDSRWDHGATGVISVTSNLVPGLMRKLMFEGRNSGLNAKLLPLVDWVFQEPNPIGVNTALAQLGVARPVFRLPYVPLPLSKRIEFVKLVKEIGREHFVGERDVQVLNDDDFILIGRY

For the compound `N[C@@H](CC=O)C(=O)O` [L-aspartic-β-semi-aldehyde], the “o-aminobenzaldehyde colorimetric DHDPS assay, 520 nm” value on CgDHDPS and at CsDHDPS B6 (wt CsDHDPS) [1] was “using L-aspartic-β-semi-aldehyde (L-ASA) as the substrate” each time. For the compound `NCCCC[C@H](N)C(=O)O` [lysine], the remaining activity at 25 µM at CsDHDPS B6 (wt CsDHDPS) [2] was determined as 20%.

As a reminder, the remaining activity is what remains of the control signal, in per cent.
